In US8975417B2, “Pyrazolopyrrolidine derivatives and their use in the treatment of disease” (Novartis AG, priority 2013, dated 2015):

Test system: MV-4-11 cells
Assay: Cell growth inhibition assay (CellTiter-Glo), MV-4-11
Assay type: cell-based
Settings: Homo sapiens, MV4-11, read-out: MV-4-11 TGI
Method in brief: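 CellTiter-Glo ATP luminescence after compound exposure at 37° C., 5% CO2; 3-fold serial dilutions from 10 μM, 0.1% DMSO vehicle. Readings background- and day 0-corrected, vehicle = 100%, medium = −100%. IC50 and total growth inhibition (TGI) from four-parameter fits.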

Row | Structure (SMILES) | IC (total growth inhibition) [µM]
1 | Cc1cc(N2C(=O)c3c(cnn3C3CC3)C2c2ccc(Cl)cc2)cn(C)c1=O (stereo not shown) [Example 34, 4-(4-chlorophenyl)-1-cyclopropyl-5-(1,5-dimethyl-6-oxo-1,6-dihydropyridin-3-yl)-4,5-dihydropyrrolo[3,4-c]pyrazol-6(1H)-one] | 0.14
2 | Cn1cc(N2C(=O)c3c(c(C(F)(F)F)nn3C3CC3)C2c2ccc(Cl)cc2)cc(Cl)c1=O (stereo not shown) [Example 44, 5-(5-chloro-1-methyl-6-oxo-1,6-dihydropyridin-3-yl)-4-(4-chlorophenyl)-1-cyclopropyl-3-(trifluoromethyl)-4,5-dihydropyrrolo[3,4-c]pyrazol-6(1H)-one] | 0.329
3 | Cc1nn(C2CC2)c2c1[C@@H](c1ccc(Cl)cc1)N(c1cc(C)c(=O)n(C)c1)C2=O [Example 49, (R)-4-(4-chlorophenyl)-1-cyclopropyl-5-(1,5-dimethyl-6-oxo-1,6-dihydropyridin-3-yl)-3-methyl-4,5-dihydropyrrolo[3,4-c]pyrazol-6(1H)-one] | 0.0394
4 | Cc1nn(C2CC2)c2c1[C@@H](c1ccc(Cl)cc1)N(c1cc(Cl)c(=O)n(C)c1)C2=O [Example 51, (R)-5-(5-chloro-1-methyl-6-oxo-1,6-dihydropyridin-3-yl)-4-(4-chlorophenyl)-1-cyclopropyl-3-methyl-4,5-dihydropyrrolo[3,4-c]pyrazol-6(1H)-one] | 0.0883
5 | COc1ncc(-n2nc3c(c2C(C)C)C(c2ccc(Cl)cc2)N(c2ccc4onc(C)c4c2)C3=O)c(OC)n1 (stereo not shown) [Example 54, 4-(4-chlorophenyl)-2-(2,4-dimethoxypyrimidin-5-yl)-3-isopropyl-5-(3-methylbenzo-[d]isoxazol-5-yl)-4,5-dihydropyrrolo[3,4-c]pyrazol-6(2H)-one] | 0.661
6 | COc1ncc(-n2nc3c(c2C)C(c2ccc(Cl)cc2)N(c2cc(Cl)c(=O)n(C)c2)C3=O)c(OC)n1 (stereo not shown) [Example 55, 5-(5-chloro-1-methyl-6-oxo-1,6-dihydropyridin-3-yl)-4-(4-chlorophenyl)-2-(2,4-dimethoxypyrimidin-5-yl)-3-methyl-4,5-dihydropyrrolo[3,4-c]pyrazol-6(2H)-one] | 0.123
7 | CCc1nn(C2CC2)c2c1C(c1ccc(Cl)cc1)N(c1cc(C)c3nnc(C)n3c1)C2=O (stereo not shown) [Example 70, 4-(4-chlorophenyl)-1-cyclopropyl-5-(3,8-dimethyl-[1,2,4]triazolo[4,3-a]pyridin-6-yl)-3-ethyl-4,5-dihydropyrrolo[3,4-c]pyrazol-6(1H)-one] | 0.0131
8 | COc1ncccc1-n1nc(C)c2c1C(=O)N(c1cc(Cl)c(=O)n(C)c1)C2c1ccc(Cl)cc1 (stereo not shown) [Example 72, 5-(5-chloro-1-methyl-6-oxo-1,6-dihydropyridin-3-yl)-4-(4-chlorophenyl)-1-(2-methoxypyridin-3-yl)-3-methyl-4,5-dihydropyrrolo[3,4-c]pyrazol-6(1H)-one] | 0.164
9 | Cc1cc(N2C(=O)c3nn(C)c(O)c3C2c2ccc(Cl)cc2)cn(C)c1=O (stereo not shown) [Example 73, 4-(4-chlorophenyl)-5-(1,5-dimethyl-6-oxo-1,6-dihydropyridin-3-yl)-3-hydroxy-2-methyl-4,5-dihydropyrrolo[3,4-c]pyrazol-6(2H)-one] | 4.4
10 | CCOc1c2c(nn1C)C(=O)N(c1cc(C)c(=O)n(C)c1)C2c1ccc(Cl)cc1 (stereo not shown) [Example 76, 4-(4-chlorophenyl)-5-(1,5-dimethyl-6-oxo-1,6-dihydropyridin-3-yl)-3-ethoxy-2-methyl-4,5-dihydropyrrolo[3,4-c]pyrazol-6(2H)-one] | 0.107
11 | COc1c2c(nn1C)C(=O)N(c1cc(C)c(=O)n(C)c1)C2c1ccc(Cl)cc1 (stereo not shown) [Example 77, 4-(4-chlorophenyl)-5-(1,5-dimethyl-6-oxo-1,6-dihydropyridin-3-yl)-3-methoxy-2-methyl-4,5-dihydropyrrolo[3,4-c]pyrazol-6(2H)-one] | 0.132
12 | CCc1nn(CCO)c2c1C(c1ccc(Cl)cc1)N(c1cc(C)c(=O)n(C)c1)C2=O (stereo not shown) [Example 78, 4-(4-chlorophenyl)-5-(1,5-dimethyl-6-oxo-1,6-dihydropyridin-3-yl)-3-ethyl-1-(2-hydroxyethyl)-4,5-dihydropyrrolo[3,4-c]pyrazol-6(1H)-one] | 0.0855
13 | CCc1nn(CCO)c2c1C(c1ccc(Cl)cc1)N(c1cc(C)c3onc(C)c3c1)C2=O (stereo not shown) [Example 79, 4-(4-chlorophenyl)-5-(3,7-dimethylbenzo[d]isoxazol-5-yl)-3-ethyl-1-(2-hydroxyethyl)-4,5-dihydropyrrolo[3,4-c]pyrazol-6(1H)-one] | 0.42
14 | CCc1c2c(nn1CCO)C(=O)N(c1cc(C)c3onc(C)c3c1)C2c1ccc(Cl)cc1 (stereo not shown) [Example 80, 4-(4-chlorophenyl)-5-(3,7-dimethylbenzo[d]isoxazol-5-yl)-3-ethyl-2-(2-hydroxyethyl)-4,5-dihydropyrrolo[3,4-c]pyrazol-6(2H)-one] | 0.472
15 | Cc1ncccc1-n1nc2c(c1C)C(c1ccc(Cl)cc1)N(c1cc(C)c(=O)n(C)c1)C2=O (stereo not shown) [Example 81, 4-(4-chlorophenyl)-5-(1,5-dimethyl-6-oxo-1,6-dihydropyridin-3-yl)-3-methyl-2-(2-methylpyridin-3-yl)-4,5-dihydropyrrolo[3,4-c]pyrazol-6(2H)-one] | 0.13
16 | Cc1ncccc1-n1nc(C)c2c1C(=O)N(c1cc(C)c(=O)n(C)c1)C2c1ccc(Cl)cc1 (stereo not shown) [Example 82, 4-(4-chlorophenyl)-5-(1,5-dimethyl-6-oxo-1,6-dihydropyridin-3-yl)-3-methyl-1-(2-methylpyridin-3-yl)-4,5-dihydropyrrolo[3,4-c]pyrazol-6(1H)-one] | 0.139
17 | Cc1nn(-c2cncn2C)c2c1C(c1ccc(Cl)cc1)N(c1cc(C)c(=O)n(C)c1)C2=O (stereo not shown) [Example 83, 4-(4-chlorophenyl)-5-(1,5-dimethyl-6-oxo-1,6-dihydropyridin-3-yl)-3-methyl-1-(1-methyl-1H-imidazol-5-yl)-4,5-dihydropyrrolo[3,4-c]pyrazol-6(1H)-one] | 0.145
18 | CCc1nn(C2CC2)c2c1C(c1ccc(Cl)cc1)N(c1cc(OC)c3nnc(C)n3c1)C2=O (stereo not shown) [Example 84, 4-(4-chlorophenyl)-1-cyclopropyl-3-ethyl-5-(8-methoxy-3-methyl-[1,2,4]triazolo[4,3-a]pyridin-6-yl)-4,5-dihydropyrrolo[3,4-c]pyrazol-6(1H)-one] | 0.098
19 | CCc1nn(CCOC)c2c1C(c1ccc(Cl)cc1)N(c1cc(C)c3nnc(C)n3c1)C2=O (stereo not shown) [Example 87, 4-(4-chlorophenyl)-5-(3,8-dimethyl-[1,2,4]triazolo[4,3-a]pyridin-6-yl)-3-ethyl-1-(2-methoxyethyl)-4,5-dihydropyrrolo[3,4-c]pyrazol-6(1H)-one] | 0.0288
20 | CCc1nn(-c2ccnn2C)c2c1C(c1ccc(Cl)cc1)N(c1cc(C)c(=O)n(C)c1)C2=O (stereo not shown) [Example 89, 4-(4-chlorophenyl)-5-(1,5-dimethyl-6-oxo-1,6-dihydropyridin-3-yl)-3-ethyl-1-(1-methyl-1H-pyrazol-5-yl)-4,5-dihydropyrrolo[3,4-c]pyrazol-6(1H)-one] | 0.0673
21 | Cc1nn(-c2ccnn2C)c2c1C(c1ccc(Cl)cc1)N(c1cc(C)c3nnc(C)n3c1)C2=O (stereo not shown) [Example 90, 4-(4-chlorophenyl)-5-(3,8-dimethyl-[1,2,4]triazolo[4,3-a]pyridin-6-yl)-3-methyl-1-(1-methyl-1H-pyrazol-5-yl)-4,5-dihydropyrrolo[3,4-c]pyrazol-6(1H)-one] | 0.0436
22 | Cc1cc(N2C(=O)c3nn(C4CC4)c(C)c3C2c2ccc(Cl)cc2)cn2c(C)nnc12 (stereo not shown) [Example 93, 4-(4-chlorophenyl)-2-cyclopropyl-5-(3,8-dimethyl-[1,2,4]triazolo[4,3-a]pyridin-6-yl)-3-methyl-4,5-dihydropyrrolo[3,4-c]pyrazol-6(2H)-one] | 0.0226
23 | Cc1nn(C2CCC2)c2c1C(c1ccc(Cl)cc1)N(c1cc(C)c(=O)n(C)c1)C2=O (stereo not shown) [Example 94, 4-(4-chlorophenyl)-1-cyclobutyl-5-(1,5-dimethyl-6-oxo-1,6-dihydropyridin-3-yl)-3-methyl-4,5-dihydropyrrolo[3,4-c]pyrazol-6(1H)-one] | 0.0318
24 | Cc1nn(C2CC2)c2c1C(c1ccc(OC(F)(F)F)cc1)N(c1cc(C)c(=O)n(C)c1)C2=O (stereo not shown) [Example 95, 1-cyclopropyl-5-(1,5-dimethyl-6-oxo-1,6-dihydropyridin-3-yl)-3-methyl-4-(4-(trifluoromethoxy)phenyl)-4,5-dihydropyrrolo[3,4-c]pyrazol-6(1H)-one] | 0.27
25 | Cc1nn(C2CC2)c2c1C(c1cccc(C(F)(F)F)c1)N(c1cc(C)c(=O)n(C)c1)C2=O (stereo not shown) [Example 96, 1-cyclopropyl-5-(1,5-dimethyl-6-oxo-1,6-dihydropyridin-3-yl)-3-methyl-4-(3-(trifluoromethyl)phenyl)-4,5-dihydropyrrolo[3,4-c]pyrazol-6(1H)-one] | 1.24
26 | Cc1nn(C2CC2)c2c1C(c1ccc(C(F)(F)F)cc1)N(c1cc(C)c(=O)n(C)c1)C2=O (stereo not shown) [Example 97, 1-cyclopropyl-5-(1,5-dimethyl-6-oxo-1,6-dihydropyridin-3-yl)-3-methyl-4-(4-(trifluoromethyl)phenyl)-4,5-dihydropyrrolo[3,4-c]pyrazol-6(1H)-one] | 0.12
27 | COc1ncc(-n2nc(C)c3c2C(=O)N(c2cc(C)c(=O)n(C)c2)[C@H]3c2ccc(Cl)cc2)c(OC)n1 [Example 99, (S)-4-(4-chlorophenyl)-1-(2,4-dimethoxypyrimidin-5-yl)-5-(1,5-dimethyl-6-oxo-1,6-dihydropyridin-3-yl)-3-methyl-4,5-dihydropyrrolo[3,4-c]pyrazol-6(1H)-one] | 4.31
28 | COc1ncc(-n2nc(C)c3c2C(=O)N(c2cc(C)c(=O)n(C)c2)[C@@H]3c2ccc(Cl)cc2)c(OC)n1 [Example 100, (R)-4-(4-chlorophenyl)-1-(2,4-dimethoxypyrimidin-5-yl)-5-(1,5-dimethyl-6-oxo-1,6-dihydropyridin-3-yl)-3-methyl-4,5-dihydropyrrolo[3,4-c]pyrazol-6(1H)-one] | 0.0582
